Assay results from patent publication US20230337677A1, “ARYL AND PYRIDYL AMIDE PESTICIDES AND COMPOSITIONS THEREOF” (University of Florida Research Foundation, Incorporated, priority 2019, published 2023).
“Also recorded” adds a separate entry of the source. Like-named read-outs stand apart in the source and are kept apart here.

Tests used:
[1] = tested on: Aedes aegypti mosquitoes, insecticide-susceptible Orlando strain; type: in vivo; conditions: for 1 h % Repellency, 100 μg/cm^2: screened at 100 μg/cm^2, strain not given; for vapor repellency / mortality, statement in words (Example 8): structure-activity analysis of Table 2; for knockdown in 1 hr repellency test (XXkd = number of insects incapacitated out of 16 females): 100 μg/cm^2; for 1 h Repellency EC50, μg/cm^2: (OR); for 1h % repellency: Screened at μg/cm^2
Description: The tubes as shown were held horizontally on the bench.
For assessing behavioral repellency (FIG. 1), Aedes aegypti mosquitoes were used from the insecticide-susceptible Orlando strain and the pyrethroid-resistant Puerto Rico strain. Sixteen female mosquitoes were transferred to a glass tube (12.5 cm long, 2.5 cm outer diameter) with the ends covered with netting. Each compound was dissolved in 1 mL of acetone and serial dilutions ranging from 30-0.01 μg/ml were made. Circular filter papers (5 cm^2) were saturated with 50 μL of each concentration and allowed 10 min for solvent evaporation. The filter papers were then placed in clear conical polypropylene caps and fixed to the end of the glass tubes. The netting prevented mosquito contact with the filter paper. The tubes were then aligned with a mark denoting the midline and the proportion of mosquitoes on the chemically treated side was scored for up to 60 min. At the end of the test, the tube was placed in a cage and the ability of the mosquitoes to fly out of the tube was assessed for 30 min. […] This post-test evaluated whether any non-responding mosquitoes (not repelled) resulted from intoxication or disorientation from the test chemical. For assessment of lethality, insects were held for 24 hr under constant exposure in glass tubes having treated filter papers.
Compounds were first screened at 100 μg/cm^2 for repellency and 24 h mortality.

[2] = tested on: Aedes aegypti mosquitoes, insecticide-susceptible Orlando strain; assay: whole plant or invertebrate; conditions: 24 h, read-out: 24 h % Mortality, 100 μg/cm^2
[3] = tested on: Aedes aegypti strain Orlando (sensitive); assay: Topical toxicity (24 hour mortality), Ae. aegypti Orlando; type: in vivo; conditions: topical application, 24 h mortality, female adults, susceptible Orlando strain
Description: (§1) The Aedes aegypti strains Orlando (sensitive) as well as the Puerto Rico (PR, resistant to permethrin) were used. The Anopheles gambiae (G3 sensitive strain, as well as Akron kdr (Akdr) strain, resistant to pyrethroids were also assessed. The larvae were provided by the USDA, Gainesville Fl, and raised in a pan with tap water maintained at 28° C. Larvae were fed a ground liver and yeast mixture, and pupae were placed in emergence cages. Adults were held at 28° C. and provided with cotton balls soaked in 10% sugar water for rearing and for all bioassays.
(§2) Female adults from 3 to 6 days were used for the experiments. The drug was dissolved in ethanol and then applied with a micro-applicator on the thorax, between the legs: 200 nL of drug per female mosquito, with different concentrations of the drug; 10 mosquitos were treated together per concentration per replicate, and put together in a small container with free access to sweet water. Mortality, i.e. no visible movement, was assessed 24 hours after treatment. Every compound was assessed on at least 3 different cohorts of mosquitoes, and the LD50 values and slopes were determined with Probit analysis, corrected with Abbott's formula.

[4] = tested on: Anopheles gambiae G3 sensitive strain; assay: Topical toxicity (24 hour mortality), An. gambiae G3; type: in vivo; conditions: topical application, 24 h mortality, female adults, susceptible strain G3
Description: as §1, §2

[5] = tested on: Aedes aegypti mosquitoes, insecticide-susceptible Orlando strain; conditions: for 24h % mortality: Screened at μg/cm^2
[6] = screened at 100 μg/cm^2, 24 h, strain not given

| SMILES | 1 h % Repellency, 100 μg/cm^2 [1] | mortality at 100 µg/cm2 [2] | 24 h % Mortality, 100 μg/cm^2 [5, 6] | also measured |
| --- | --- | --- | --- | --- |
| C=CC(=O)Nc1ccccc1NC(=O)C=C [GMR024] | 0% | 3% | – | vapor repellency / mortality, statement in words (Example 8) [1]: reduced repellency and poor toxicity |
| CN(C(=O)C(F)(F)C(F)(F)OC(F)(F)F)c1cc(Cl)nc(Cl)c1 [GMR106] | – | – | – | knockdown in 1 hr repellency test (XXkd = number of insects incapacitated out of 16 females) [1]: 2; Ae. aegypti OR LD50 [3]: 846 ng/mg; An. gambiae G3 LD50 [4]: >1000 ng/mg; 24 h % Mortality, 100 μg/cm^2 ([5]; in vivo): 100% |
| CN(C(=O)C(F)(F)C(F)(F)C(F)(F)F)c1cc(F)c(F)c(F)c1 [GMR113] | 0% | 6% | – | – |
| CN(C(=O)C(F)(F)C(F)(F)OC(F)(F)F)c1cc(F)c(F)c(F)c1 [GMR114] | 0% | 6% | – | – |
| CC(=O)Nc1c(Cl)cncc1Cl [GMR130] | 34% | 81% | – | – |
| CCCC(=O)Nc1c(Cl)cncc1Cl [GMR132] | 4% | 28% | – | – |
| O=C(Nc1cc(F)c(F)c(F)c1)C(F)(F)C(F)(F)F [GMR135] | 74% | – | 100% | 1 h Repellency EC50, μg/cm^2 [1]: 22.1 μg/cm^2; Ae. aegypti OR LD50 [3]: 1792 ng/mg; 24 h LC50, μg/cm^2 ([5]; 24 h, LC50 (OR)): 21.6 μg/cm^2 |
| CC(=O)Nc1cc(F)c(F)c(F)c1 [GMR142] | 50% | 66% | – | – |
| CCCC(=O)Nc1cc(F)c(F)c(F)c1 [GMR144] | 62% | – | 38% | – |
| COCc1c(F)c(F)c(COC(=O)[C@@H]2[C@@H](C=C(Cl)Cl)C2(C)C)c(F)c1F [GMR146] | – | – | – | knockdown in 1 hr repellency test (XXkd = number of insects incapacitated out of 16 females) [1]: 15; 24 h % Mortality, 100 μg/cm^2 ([5]; in vivo): 100%; 24 h LC50, μg/cm^2 ([5]; in vivo): 1 μg/cm^2 |
| CC1(C)[C@H](C=C(Cl)Cl)[C@H]1C(=O)Nc1cc(F)c(F)c(F)c1 [GMR148] | 12% | 6% | – | – |
| CCC(=O)Nc1cccc(OC(F)(F)F)c1 [GMR160] | 42% | 16% | – | 1 h Repellency EC50, μg/cm^2 [1]: 123 μg/cm^2 |
| C#C[C@@H]1[C@@H](C(=O)Nc2cc(F)cc(F)c2)C1(C)C [GMR180] | −24% | 14.3% | – | – |
| CCCCCCCCCC(=O)Nc1ccccc1OC(F)(F)F [GMR184] | −8% | – | 2% | – |
| O=C(Nc1ccc(F)cc1)C(F)(F)C(F)(F)F [GMR189] | 42% | – | 94% | 1 h Repellency EC50, μg/cm^2 [1]: 4.5 μg/cm^2; 24 h LC50, μg/cm^2 ([5]; 24 h, LC50 (OR)): 35.3 μg/cm^2 |
| O=C(Nc1ccc(F)cc1)C(F)(F)Sc1ccc(F)cc1 [GMR196] | 18% | 0% | – | – |
| CC(SC(F)(F)F)C(=O)Nc1ccc(F)cc1 (stereo not drawn) [GMR197] | 30% | 0% | – | – |
| O=C(CCSC(F)(F)F)Nc1ccc(F)cc1 [GMR198] | 8% | 0% | – | – |
| O=C(c1c(F)c(F)c(F)c(F)c1F)n1nnc2ccccc21 [MT2018-0314-01] | 32% | 0% | – | – |
| O=C(Cc1c(F)c(F)c(F)c(F)c1F)n1nnc2ccccc21 [MT2018-0314-02] | 6% | 0% | – | – |
| O=C(Nc1cccc(C(F)(F)F)c1)c1c(F)c(F)c(F)c(F)c1F [MT2018-0316-01] | 24% | 0% | – | vapor repellency / mortality, statement in words (Example 8) [1]: poor results |

| SMILES | 1 h % Repellency, 100 μg/cm^2 [1] | mortality at 100 µg/cm2 [2] | 24 h % Mortality, 100 μg/cm^2 [5, 6] | also measured |
| --- | --- | --- | --- | --- |
| O=C(Cc1c(F)c(F)c(F)c(F)c1F)Nc1cccc(C(F)(F)F)c1 [MT2018-0316-02] | 6% | 0% | – | – |
| O=C(Nc1ccccc1C(F)(F)F)C(F)(F)C(F)(F)F [MTFI-2-1B] | 38% | 0% | – | – |
| CCCCCCCCCCC(=O)Nc1ccccc1C(F)(F)F [MTFI-2-1F] | 6% | 0% | – | – |
| O=C(CCl)Nc1cccc(C(F)(F)F)c1 [MTFI-2-2A] | 50% | – | 3% | – |
| C=CCCCC(=O)Nc1cc(C(F)(F)F)cc(C(F)(F)F)c1 [MTFI-3-1C] | 38% | – | 0% | – |
| O=C(CCC1CCCCC1)Nc1cc(C(F)(F)F)cc(C(F)(F)F)c1 [MTFI-3-1D] | 6% | – | 7% | – |
| Cc1ccccc1C(=O)Nc1cc(C(F)(F)F)cc(C(F)(F)F)c1 [MTFI-3-1E] | 6% | 7% | – | vapor repellency / mortality, statement in words (Example 8) [1]: poor results |
| O=C(Nc1cc(C(F)(F)F)cc(C(F)(F)F)c1)C(F)(F)F [MTFI-3-1G] | – | – | – | knockdown in 1 hr repellency test (XXkd = number of insects incapacitated out of 16 females) [1]: 3; 24 h % Mortality, 100 μg/cm^2 ([5]; in vivo): 100%; 24 h LC50, μg/cm^2 ([5]; in vivo): 16 μg/cm^2 |
| CC(=O)Nc1ccccc1C(F)(F)F [MTFI-3-2A] | 80% | 22% | – | – |
| O=C(CCC1CCCCC1)Nc1ccccc1C(F)(F)F [MTFI-3-2F] | 18% | – | 25% | – |
| O=C(Nc1cc(F)c(F)c(F)c1F)C(F)F [MTFI-5-4A] | 68% | 0% | – | – |
| O=C(Nc1cc(F)c(F)c(F)c1F)C(F)(F)F [MTFI-5-4B] | 82% | – | 0% | – |
| O=C(Nc1cc(F)c(F)c(F)c1F)C(F)(F)C(F)(F)C(F)(F)F [MTFI-5-4E] | 56% | 6% | – | – |
| CC(C)(F)C(=O)Nc1ccccc1C(F)(F)F [MTFI-5-5A] | 82% | – | 3% | vapor repellency / mortality, statement in words (Example 8) [1]: reduced repellency; also recorded: little to no activity |
| O=C(CC1CC1)Nc1ccccc1C(F)(F)F [MTFI-5-5C] | 82% | – | 0% | 1 h Repellency EC50, μg/cm^2 [1]: 34 μg/cm^2 |
| C=CCCC(=O)Nc1ccccc1C(F)(F)F [MTFI-5-5D] | 56% | 6% | – | – |
| CC(C)(C)c1cccc(NC(=O)CCl)c1 [MTFI-5-7A] | 6% | – | 0% | – |
| CCCCC(=O)Nc1cccc(OC(F)(F)F)c1 [MTFI-5-9A] | 50% | – | 0% | – |
| CC(C)(C)c1cccc(NC(=O)CCl)c1 [compound 1] | – | – | – | 1h % repellency ([1]; Table 3B): 6%; 24h % mortality ([5]; Table 3B): 0% |
| O=C(Nc1cc(F)c(F)c(F)c1)C(F)(F)C(F)(F)OC(F)(F)F [compound 51] | – | – | – | 1h EC50 (μg/cm^2) ([1]; Table 3A): 3.09 μg/cm^2; 1h % repellency ([1]; Table 3A): 100%; 24 h LC50, μg/cm^2 ([5]; Table 3A): 14.94 μg/cm^2; 24h % mortality ([5]; Table 3A): 100% |
